Test results as given in the NIST ThermoML archive (doi:10.1021/je800159w).

Columns and labels:
[1] = xn = mol fraction of the nth substance listed; conditions: 101 kPa, Liquid
[2] = refractive index (Na D-line) (dimensionless); xn = mol fraction of the nth substance listed; conditions: 298.15 K, 101 kPa, Liquid, Standard Abbe refractometry
[3] = refractive index (Na D-line) (dimensionless); conditions: 298.15 K; 101.33 kPa; Liquid; Standard Abbe refractometry
[4] = 101 kPa, Liquid

CCOS(=O)(=O)[O-].CC[n+]1cccc(C)c1 [1-ethyl-3-methylpyridinium ethylsulfate] + O
[1]
Conditions | mass density, 298.15 K [kg/m3] | mass density, 313.15 K [kg/m3] | mass density, 328.15 K [kg/m3] | viscosity, 298.15 K [mPa·s] | viscosity, 313.15 K [mPa·s] | viscosity, 328.15 K [mPa·s]
x2 = 0.0526 | 1221.69 | 1211.82 | 1202.02 | 127.6 | 60.5 | 34.93
x2 = 0.1412 | 1220.12 | 1210.22 | 1200.35 | 102.1 | 50.28 | 29.83
x2 = 0.2445 | 1217.8 | 1207.83 | 1198.02 | 77.9 | 39.91 | 23.49
x2 = 0.3233 | 1215.58 | 1205.62 | 1195.72 | 62.3 | 32.92 | 19.76
x2 = 0.4174 | 1212.21 | 1202.21 | 1192.23 | 46.87 | 24.86 | 15.51
x2 = 0.4972 | 1208.39 | 1198.31 | 1188.24 | 36.11 | 20.36 | 12.78
x2 = 0.588 | 1202.53 | 1192.32 | 1182.14 | 26.83 | 15.52 | 9.894
x2 = 0.6975 | 1191.35 | 1180.92 | 1170.42 | 17.72 | 10.5 | 6.847
x2 = 0.7928 | 1174.05 | 1163.41 | 1152.61 | 11.18 | 6.778 | 4.508
x2 = 0.9005 | 1129.44 | 1119.24 | 1108.66 | 4.927 | 3.161 | 2.197
x2 = 0.9484 | 1086.2 | 1077.5 | 1068 | 2.717 | 1.818 | 1.315

[2]
Conditions | refractive index
x2 = 0.0526 | 1.50583
x2 = 0.1412 | 1.50427
x2 = 0.2445 | 1.50193
x2 = 0.3233 | 1.49986
x2 = 0.4174 | 1.49685
x2 = 0.4972 | 1.49329
x2 = 0.588 | 1.48806
x2 = 0.6975 | 1.47838
x2 = 0.7928 | 1.46398
x2 = 0.9005 | 1.42959
x2 = 0.9484 | 1.39796

CCO [ethanol]
Conditions | refractive index
[3] | 1.36023

[4]
Conditions | mass density [kg/m3] | viscosity [mPa·s]
298.15 K | 785.46 | 1.082
313.15 K | 772 | 0.827
328.15 K | 758.55 | 0.641

CCO [ethanol] + CCOS(=O)(=O)[O-].CC[n+]1cccc(C)c1
[1], x1 = 1
Conditions | mass density [kg/m3] | viscosity [mPa·s]
298.15 K | 785.46 | 1.082
313.15 K | 772 | 0.827
328.15 K | 758.55 | 0.641

Conditions | refractive index
[2], x1 = 1 | 1.36023
